Data reported in ChEMBL document CHEMBL1201862, “PubChem BioAssay data set” (2004).
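Interpolation was linear, between the two tested concentrations surrounding the appropriate level; five concentrations were tested over 48 hours in 96-well plates. Abbreviation: GI50, concentration required for 50% inhibition of growth.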 Active and inactive are the calls of the source. Rule as the data show it: active = GI50 up to about 1.1 µM and inactive = higher.

Assays:
Assay in all cases: NCI-60 cell line screen, 48 h
NCI/ADR-RES = system: NCI/ADR-RES
HOP-62 = system: HOP-62
HCT-116 = system: HCT-116
DU-145 = system: DU-145
RXF 393 = system: RXF 393
SW-620 = system: SW-620
MCF7 = system: MCF7
UACC-257 = system: UACC-257
RPMI-8226 = system: RPMI-8226
UO-31 = system: UO-31
UACC-62 = system: UACC-62
OVCAR-4 = system: OVCAR-4
CAKI-1 = system: CAKI-1
KM12 = system: KM12
NCI-H23 = system: NCI-H23
SNB-19 = system: SNB-19
NCI-H226 = system: NCI-H226
PC-3 = system: PC-3
NCI-H522 = system: NCI-H522
SR = system: SR

Row | SMILES | GI50 (NCI/ADR-RES) | GI50 (HOP-62) | GI50 (HCT-116) | GI50 (DU-145) | GI50 (RXF 393) | GI50 (SW-620) | GI50 (MCF7) | GI50 (UACC-257) | GI50 (RPMI-8226) | GI50 (UO-31) | GI50 (UACC-62) | GI50 (OVCAR-4) | GI50 (CAKI-1) | GI50 (KM12) | GI50 (NCI-H23) | GI50 (SNB-19) | GI50 (NCI-H226) | GI50 (PC-3) | GI50 (NCI-H522) | GI50 (SR)
1 | CCCNC1=Nc2ccccc2[C@@H]2N(C)c3ccccc3C(C)C[C@]12C (stereo partly drawn) | 22.4 µM (inactive) | 16.4 µM (inactive) | 14.8 µM (inactive) | 32.4 µM (inactive) | 19.7 µM (inactive) | 16.5 µM (inactive) | 21.3 µM (inactive) | 12.9 µM (inactive) | 18.7 µM (inactive) | 27.9 µM (inactive) | 16.1 µM (inactive) | 5.7 µM (inactive) | 26.3 µM (inactive) | 20.3 µM (inactive) | 18.2 µM (inactive) | 18.6 µM (inactive) | 34 µM (inactive) | 16 µM (inactive) | 18.2 µM (inactive) | 
2 | CCn1cc(C(=O)O)c(=O)c2ccc(C)nc21 [NALIDIXIC ACID] | > 100 µM (inactive) | > 100 µM (inactive) | > 100 µM (inactive) | > 100 µM (inactive) |  | > 100 µM (inactive) | > 100 µM (inactive) | > 100 µM (inactive) | > 100 µM (inactive) | 67 µM (inactive) |  | > 100 µM (inactive) | > 100 µM (inactive) | > 100 µM (inactive) | > 100 µM (inactive) | > 100 µM (inactive) | > 100 µM (inactive) | > 100 µM (inactive) | > 100 µM (inactive) | > 100 µM (inactive)
3 | O=C(O)CCSc1nnc(COc2ccc(Cl)cc2)n1-c1ccccc1 | > 100 µM (inactive) | > 100 µM (inactive) | > 100 µM (inactive) | > 100 µM (inactive) | > 100 µM (inactive) | > 100 µM (inactive) | > 100 µM (inactive) | > 100 µM (inactive) |  | > 100 µM (inactive) | > 100 µM (inactive) | > 100 µM (inactive) | > 100 µM (inactive) | > 100 µM (inactive) | > 100 µM (inactive) | > 100 µM (inactive) | > 100 µM (inactive) | > 100 µM (inactive) | > 100 µM (inactive) | 
4 | O=C1CCCC1CN1CCCC1 (stereo not drawn) | 15.7 µM (inactive) | > 67 µM (inactive) | 3.44 µM (inactive) | 30.5 µM (inactive) |  | 5.24 µM (inactive) | 2.2 µM (inactive) | 15.2 µM (inactive) | 0.431 µM (active) | 7.31 µM (inactive) | 17.7 µM (inactive) | 1.93 µM (inactive) | 0.348 µM (active) | 16.1 µM (inactive) | 15.3 µM (inactive) | > 100 µM (inactive) | 46.2 µM (inactive) | 18.9 µM (inactive) | < 0.0275 µM (active) | 0.194 µM (active)
5 | Cc1ccsc1C(=S)Nc1ccc(Cl)c(C(=O)OC(C(C)C)C(C)C)c1 | 13.6 µM (inactive) |  | 12.1 µM (inactive) | 33 µM (inactive) |  | 18.9 µM (inactive) | 16.1 µM (inactive) | 28.4 µM (inactive) | 10.6 µM (inactive) | 13.1 µM (inactive) | 21 µM (inactive) | 29.1 µM (inactive) | 19.5 µM (inactive) | 20 µM (inactive) | 13.5 µM (inactive) | 25.5 µM (inactive) | 29 µM (inactive) | 8.53 µM (inactive) | 11.4 µM (inactive) | 
6 | C[C@H](C1CC2(C)OC2(C)C(=O)O1)[C@H]1CC[C@H]2[C@@H]3[C@@H]4O[C@@H]4[C@@]4(O)CC=CC(=O)[C@]4(C)[C@H]3CC[C@]12C (stereo partly drawn) | > 50 µM (inactive) | 37.8 µM (inactive) | > 50 µM (inactive) | 16.9 µM (inactive) | 9.71 µM (inactive) | > 50 µM (inactive) | > 50 µM (inactive) | > 50 µM (inactive) | > 50 µM (inactive) | 12.3 µM (inactive) | > 50 µM (inactive) | > 50 µM (inactive) | > 50 µM (inactive) | > 50 µM (inactive) | > 50 µM (inactive) | 29.6 µM (inactive) | > 50 µM (inactive) | > 50 µM (inactive) | 36.6 µM (inactive) | 
7 | CC(=O)NC1C(OCC(=O)NC(C)C(=O)NC(CCC(=O)NCCCCCNc2ccc([N+](=O)[O-])c3[nH]c4ccccc4c(=O)c23)C(N)=O)C(O)C(CO)OC1(C)OCc1ccccc1 (stereo not drawn) | > 50 µM (inactive) | 14.8 µM (inactive) | 19.4 µM (inactive) | > 50 µM (inactive) | 3.48 µM (inactive) | > 50 µM (inactive) | > 50 µM (inactive) | > 50 µM (inactive) | 0.005 µM (active) | > 50 µM (inactive) | > 50 µM (inactive) | > 50 µM (inactive) | > 50 µM (inactive) | > 50 µM (inactive) | > 50 µM (inactive) | 33.3 µM (inactive) | > 50 µM (inactive) | > 50 µM (inactive) | > 50 µM (inactive) | 
8 | CC(C)Nc1[nH]c(C(=O)c2ccccc2)c(N)c1C(=S)Nc1ccccc1 | > 100 µM (inactive) | > 100 µM (inactive) | 36.1 µM (inactive) | > 100 µM (inactive) |  | 47 µM (inactive) | 40.4 µM (inactive) | 22.9 µM (inactive) |  | 77.1 µM (inactive) | 16.9 µM (inactive) | 71.9 µM (inactive) | > 100 µM (inactive) | 31.7 µM (inactive) | > 100 µM (inactive) | > 100 µM (inactive) | 41.3 µM (inactive) | > 100 µM (inactive) | 63.8 µM (inactive) | 43.5 µM (inactive)
9 | OC[C@H](O)[C@@H](OCc1ccccc1)[C@H](NCc1ccccc1)c1cccs1 | > 100 µM (inactive) | > 100 µM (inactive) | 99.5 µM (inactive) | > 100 µM (inactive) |  | > 100 µM (inactive) | > 100 µM (inactive) | > 100 µM (inactive) | 92 µM (inactive) | 15.5 µM (inactive) | > 100 µM (inactive) | > 100 µM (inactive) | > 100 µM (inactive) | > 100 µM (inactive) | 55.7 µM (inactive) | 21.4 µM (inactive) | > 100 µM (inactive) | 98.4 µM (inactive) | > 100 µM (inactive) | > 100 µM (inactive)
10 | CC(C)C(=O)CC(Sc1ccc(N)cc1)c1ccccc1 (stereo not drawn) | 33.7 µM (inactive) | 37.1 µM (inactive) | 13.3 µM (inactive) | 25.4 µM (inactive) | 25.9 µM (inactive) | 16.9 µM (inactive) | 18.2 µM (inactive) | 33.6 µM (inactive) | 17.4 µM (inactive) | 29.2 µM (inactive) | 19 µM (inactive) |  | 34.3 µM (inactive) | 22.5 µM (inactive) | 21.9 µM (inactive) | 48.5 µM (inactive) | 46.5 µM (inactive) | 35.4 µM (inactive) | 15.8 µM (inactive) | 
11 | NNS(=O)(=O)c1ccc(/C=C2\NC(=O)NC2=O)cc1 | > 100 µM (inactive) | > 100 µM (inactive) | > 100 µM (inactive) | > 100 µM (inactive) |  | > 100 µM (inactive) | > 100 µM (inactive) | > 100 µM (inactive) | > 100 µM (inactive) | > 100 µM (inactive) | > 100 µM (inactive) | > 100 µM (inactive) | > 100 µM (inactive) | > 100 µM (inactive) | > 100 µM (inactive) | > 100 µM (inactive) | > 100 µM (inactive) | > 100 µM (inactive) |  | 
12 | Cc1ccc2oc3c(c(Br)c(Br)n3C)c(=O)c2c1 | 20.4 µM (inactive) | 17 µM (inactive) | 15.7 µM (inactive) | 78.9 µM (inactive) | 16.9 µM (inactive) | > 100 µM (inactive) | 90.6 µM (inactive) | 65.5 µM (inactive) | > 100 µM (inactive) | 13.9 µM (inactive) | 19.6 µM (inactive) | 51.5 µM (inactive) | 28.4 µM (inactive) | > 100 µM (inactive) | 19.5 µM (inactive) | 17.8 µM (inactive) | 15.6 µM (inactive) | 35 µM (inactive) | 46.2 µM (inactive) | 
13 | CC1CNC(c2ccc(CN3CCC(C4CCN(Cc5ccc(C6=NC(C)CN6)cc5)CC4)CC3)cc2)=N1 (stereo not drawn) | 34.4 µM (inactive) | 14.9 µM (inactive) | 17.9 µM (inactive) | 16.2 µM (inactive) | 16.9 µM (inactive) | 18.2 µM (inactive) | 17 µM (inactive) | 24.2 µM (inactive) | 19.5 µM (inactive) | 26.5 µM (inactive) | 19.9 µM (inactive) | 16.8 µM (inactive) | 38.8 µM (inactive) | 15.7 µM (inactive) | 28 µM (inactive) | 26.1 µM (inactive) |  | 17.7 µM (inactive) | 15 µM (inactive) | 
14 | CCN(CC)C(=S)N/N=C/c1cc(OC)ccc1O | 2.58 µM (inactive) | 7.5 µM (inactive) | 4.86 µM (inactive) | 5.86 µM (inactive) | 9.04 µM (inactive) | 8.28 µM (inactive) | 3.84 µM (inactive) | 7.31 µM (inactive) |  | 0.561 µM (active) | 4.25 µM (inactive) | 3.56 µM (inactive) |  | 1.7 µM (inactive) | 7.98 µM (inactive) | 8.91 µM (inactive) | 3.03 µM (inactive) | 8.85 µM (inactive) | 3.85 µM (inactive) | 2.76 µM (inactive)
15 | COc1c(-c2nc3ccc(N4CCN(C)CC4)nc3[nH]2)cc(OC)c2c1nc(COC(C)=O)n2C | > 100 µM (inactive) | > 100 µM (inactive) | 86.3 µM (inactive) | 22.6 µM (inactive) | 19 µM (inactive) |  | 65.3 µM (inactive) | 45.3 µM (inactive) |  | > 100 µM (inactive) | > 100 µM (inactive) | 89.9 µM (inactive) | > 100 µM (inactive) | 39.4 µM (inactive) | > 100 µM (inactive) | 90.2 µM (inactive) | > 100 µM (inactive) | 94.8 µM (inactive) | > 100 µM (inactive) | 
